# Measured values taken from the supplement of paper PMC10307832.
# How the values were obtained:
# Assay in all cases: relative viability (nuclei count vs DMSO), 5 days (fraction); higher = more cells survive
# [1] = test system: HCC-827
# Outline: (§1)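 One day after seeding in 1536-well plates, lung cancer cell lines were dosed by pin tool. Dosing was either single-drug or a fixed anchor-drug dose plus five library-drug doses (not always all listed) in √10 steps. After 5 days, nuclei were stained in one fix-and-stain step and counted on 4× images, and relative viability is the nuclei count of treated wells over that of vehicle wells, given as the median of duplicate plates.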
# [2] = test system: NCI-H647
# Outline: as §1
# [3] = test system: EPLC-272H
# Outline: as §1
# [4] = test system: NCI-H2170
# Outline: as §1
# [5] = test system: 201T
# Outline: as §1
# [6] = test system: LOU-NH91
# Outline: as §1
# [7] = test system: NCI-H1437
# Outline: as §1
# [8] = test system: BEN
# Outline: as §1
# [9] = test system: LU99A
# Outline: as §1
# [10] = test system: H3255
# Outline: as §1
# [11] = test system: EKVX
# Outline: as §1
# [12] = test system: NCI-H2342
# Outline: as §1
# [13] = test system: HCC-44
# Outline: as §1
# [14] = test system: NCI-H1975
# Outline: as §1
# [15] = test system: LCLC-97TM1
# Outline: as §1
# [16] = test system: NCI-H650
# Outline: as §1
# [17] = test system: NCI-H2087
# Outline: as §1
# [18] = test system: PC-3 [JPC-3]
# Outline: as §1
# [19] = test system: NCI-H1666
# Outline: as §1
# [20] = test system: NCI-H2085
# Outline: as §1
smiles,measurement,setting,value
Cc1sc2c(c1C)C(c1ccc(Cl)cc1)=N[C@@H](CC(=O)OC(C)(C)C)c1nnc(C)n1-2 [JQ1] + NC(=O)Nc1cc(-c2cccc(F)c2)sc1C(=O)N[C@H]1CCCNC1 [AZD7762] (partner 0.2 µM),relative viability,[1]; first compound 0.04 µM,0.292
same,relative viability,[1]; first compound 0.1265 µM,0.266
same,relative viability,[1]; first compound 1.265 µM,0.233
same,relative viability,[1]; first compound 4 µM,0.277
same,relative viability,[2]; first compound 0.04 µM,0.472
same,relative viability,[2]; first compound 0.1265 µM,0.293
same,relative viability,[2]; first compound 0.4 µM,0.25
same,relative viability,[2]; first compound 1.265 µM,0.103
same,relative viability,[2]; first compound 4 µM,0.0446
same,relative viability,[3]; first compound 0.04 µM,0.244
same,relative viability,[3]; first compound 0.1265 µM,0.122
same,relative viability,[3]; first compound 0.4 µM,0.355
same,relative viability,[3]; first compound 1.265 µM,0.246
same,relative viability,[3]; first compound 4 µM,0.214
same,relative viability,[4]; first compound 0.04 µM,0.785
same,relative viability,[4]; first compound 0.1265 µM,0.564
same,relative viability,[4]; first compound 0.4 µM,0.739
same,relative viability,[4]; first compound 1.265 µM,0.431
same,relative viability,[4]; first compound 4 µM,0.379
same,relative viability,[5]; first compound 0.04 µM,0.716
same,relative viability,[5]; first compound 0.4 µM,0.7
same,relative viability,[5]; first compound 1.265 µM,0.498
same,relative viability,[5]; first compound 4 µM,0.393
same,relative viability,[6]; first compound 0.04 µM,0.759
same,relative viability,[6]; first compound 0.1265 µM,0.609
same,relative viability,[6]; first compound 0.4 µM,0.664
same,relative viability,[6]; first compound 1.265 µM,0.379
same,relative viability,[6]; first compound 4 µM,0.407
same,relative viability,[7]; first compound 0.04 µM,1.11
same,relative viability,[7]; first compound 0.1265 µM,0.979
same,relative viability,[7]; first compound 0.4 µM,0.847
same,relative viability,[7]; first compound 1.265 µM,0.657
same,relative viability,[7]; first compound 4 µM,0.445
same,relative viability,[8]; first compound 0.04 µM,0.718
same,relative viability,[8]; first compound 0.1265 µM,0.585
same,relative viability,[8]; first compound 0.4 µM,0.644
same,relative viability,[8]; first compound 1.265 µM,0.468
same,relative viability,[8]; first compound 4 µM,0.372
same,relative viability,[9]; first compound 0.04 µM,0.443
same,relative viability,[9]; first compound 0.4 µM,0.271
same,relative viability,[9]; first compound 1.265 µM,0.165
same,relative viability,[9]; first compound 4 µM,0.172
same,relative viability,[10]; first compound 0.04 µM,0.851
same,relative viability,[10]; first compound 0.1265 µM,0.67
same,relative viability,[10]; first compound 0.4 µM,0.71
same,relative viability,[10]; first compound 1.265 µM,0.411
same,relative viability,[10]; first compound 4 µM,0.277
same,relative viability,[11]; first compound 0.04 µM,0.721
same,relative viability,[11]; first compound 0.1265 µM,0.794
same,relative viability,[11]; first compound 0.4 µM,1.03
same,relative viability,[11]; first compound 1.265 µM,0.793
same,relative viability,[11]; first compound 4 µM,0.455
same,relative viability,[12]; first compound 0.04 µM,0.544
same,relative viability,[12]; first compound 0.1265 µM,0.475
same,relative viability,[12]; first compound 0.4 µM,0.588
same,relative viability,[12]; first compound 1.265 µM,0.465
same,relative viability,[12]; first compound 4 µM,0.4
same,relative viability,[13]; first compound 0.04 µM,0.987
same,relative viability,[13]; first compound 0.1265 µM,1.14
same,relative viability,[13]; first compound 0.4 µM,1.06
same,relative viability,[13]; first compound 1.265 µM,1.09
same,relative viability,[13]; first compound 4 µM,0.76
same,relative viability,[14]; first compound 0.04 µM,0.678
same,relative viability,[14]; first compound 0.1265 µM,0.412
same,relative viability,[14]; first compound 0.4 µM,0.767
same,relative viability,[14]; first compound 1.265 µM,0.526
same,relative viability,[14]; first compound 4 µM,0.41
same,relative viability,[15]; first compound 0.04 µM,0.269
same,relative viability,[15]; first compound 0.1265 µM,0.255
same,relative viability,[15]; first compound 0.4 µM,0.268
same,relative viability,[15]; first compound 1.265 µM,0.097
same,relative viability,[15]; first compound 4 µM,0.0653
same,relative viability,[16]; first compound 0.04 µM,0.935
same,relative viability,[16]; first compound 0.1265 µM,0.591
same,relative viability,[16]; first compound 0.4 µM,1
same,relative viability,[16]; first compound 1.265 µM,0.565
same,relative viability,[16]; first compound 4 µM,0.302
same,relative viability,[17]; first compound 0.04 µM,1.34
same,relative viability,[17]; first compound 0.1265 µM,1.29
same,relative viability,[17]; first compound 0.4 µM,1.29
same,relative viability,[17]; first compound 1.265 µM,0.604
same,relative viability,[17]; first compound 4 µM,0.383
same,relative viability,[18]; first compound 0.04 µM,0.709
same,relative viability,[18]; first compound 0.1265 µM,0.849
same,relative viability,[18]; first compound 0.4 µM,0.497
same,relative viability,[18]; first compound 1.265 µM,0.527
same,relative viability,[18]; first compound 4 µM,0.438
same,relative viability,[19]; first compound 0.04 µM,0.869
same,relative viability,[19]; first compound 0.1265 µM,0.793
same,relative viability,[19]; first compound 0.4 µM,0.65
same,relative viability,[19]; first compound 1.265 µM,0.48
same,relative viability,[19]; first compound 4 µM,0.488
same,relative viability,[20]; first compound 0.04 µM,0.935
same,relative viability,[20]; first compound 0.1265 µM,0.822
same,relative viability,[20]; first compound 0.4 µM,1.06
same,relative viability,[20]; first compound 1.265 µM,0.446
same,relative viability,[20]; first compound 4 µM,0.318
